Test results: US11987586B1 (TAKEDA PHARMACEUTICAL COMPANY LIMITED, priority 2022, dated 2024)

Target: T1, human OX2 receptor (Homo sapiens, UniProt O43614)
T1 construct: expressed in transfected cells
T1 sequence (O43614 1-444): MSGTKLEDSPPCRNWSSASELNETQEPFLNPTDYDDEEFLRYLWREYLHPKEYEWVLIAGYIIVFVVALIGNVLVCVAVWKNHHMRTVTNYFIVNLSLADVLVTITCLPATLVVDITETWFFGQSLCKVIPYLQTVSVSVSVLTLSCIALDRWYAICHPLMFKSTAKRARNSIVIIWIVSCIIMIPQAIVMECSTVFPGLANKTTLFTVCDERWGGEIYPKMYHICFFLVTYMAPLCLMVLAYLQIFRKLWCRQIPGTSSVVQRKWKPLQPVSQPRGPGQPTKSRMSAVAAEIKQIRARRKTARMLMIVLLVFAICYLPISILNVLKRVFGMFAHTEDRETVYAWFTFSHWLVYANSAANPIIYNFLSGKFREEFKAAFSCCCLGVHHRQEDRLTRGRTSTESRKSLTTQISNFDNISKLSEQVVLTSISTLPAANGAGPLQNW
Test: Measurement of orexin type 2 receptor agonist activity (calcium fluorescence, Fluo-4, FDSS)
Format: cell-based
Settings: 3 uM test compound; CHO cells expressing human OX2 receptor; DMSO = 0%, 10 nM orexin A (human) = 100%
Summary of the method: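 Agonist activity (%) was normalised to the response to 10 nM final human orexin A (100%) and to the DMSO vehicle (0%). The response was measured as the Fluo-4 calcium signal, read kinetically over 1 min 40 s after compound addition to Fluo-4/probenecid-loaded stable CHO-K1 clones expressing human OX2 (aa 1-444).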

In order of rising “OX2R agonist activity (3 uM, %)” value:
1. CCOc1cc(-c2c(F)cccc2F)c2c(-n3cc4n(c3=O)C[C@@H](NS(C)(=O)=O)C4(F)F)noc2c1 [Example 194, N-{(6R)-2-[4-(2,6-difluorophenyl)-6-ethoxy-1,2-benzoxazol-3-yl]-7,7-difluoro-3-oxo-2,5,6,7-tetrahydro-3H-pyrrolo[1,2-c]imidazol-6-yl}methanesulfonamide]  92%
2. CCOc1cc2onc(N3CC[C@H]4N(C[C@@H](NS(C)(=O)=O)C4(F)F)C3=O)c2c(-c2c(F)cc(F)cc2F)c1F [Example 202, N-{(4aR,6R)-2-[6-ethoxy-5-fluoro-4-(2,4,6-trifluorophenyl)-1,2-benzoxazol-3-yl]-5,5-difluoro-1-oxooctahydropyrrolo[1,2-c]pyrimidin-6-yl}methanesulfonamide]  99%
3. CCOc1cc(-c2c(F)cccc2F)c2c(N3CC[C@H]4N(C[C@@H](NS(C)(=O)=O)C4(F)F)C3=O)noc2c1 [Example 199, N-{(4aR,6R)-2-[4-(2,6-difluorophenyl)-6-ethoxy-1,2-benzoxazol-3-yl]-5,5-difluoro-1-oxooctahydropyrrolo[1,2-c]pyrimidin-6-yl}methanesulfonamide]  105%
4. CS(=O)(=O)N[C@H]1C[C@H]2CCN(c3noc4cccc(-c5c(F)cc(F)cc5F)c34)C(=O)N2C1 [Example 195]  106%
5. Cc1cc2onc(-n3cc4n(c3=O)C[C@@H](NS(C)(=O)=O)C4(F)F)c2c(-c2c(F)cccc2F)n1 [Example 196, N-{(6R)-2-[4-(2,6-difluorophenyl)-6-methyl[1,2]oxazolo[4,5-c]pyridin-3-yl]-7,7-difluoro-3-oxo-2,5,6,7-tetrahydro-3H-pyrrolo[1,2-c]imidazol-6-yl}methanesulfonamide]  106%
6. CCS(=O)(=O)N[C@@H]1Cn2c(cn(-c3noc4cc(C)nc(-c5c(F)cc(F)cc5F)c34)c2=O)C1(F)F [Example 198, N-{(6R)-7,7-difluoro-2-[6-methyl-4-(2,4,6-trifluorophenyl)[1,2]oxazolo[4,5-c]pyridin-3-yl]-3-oxo-2,5,6,7-tetrahydro-3H-pyrrolo[1,2-c]imidazol-6-yl}ethanesulfonamide]  112%
7. Cc1cc2onc(-n3cc4n(c3=O)C[C@@H](NS(=O)(=O)CF)C4(F)F)c2c(-c2c(F)cc(F)cc2F)n1 [Example 201, N-{(6R)-7,7-difluoro-2-[6-methyl-4-(2,4,6-trifluorophenyl)[1,2]oxazolo[4,5-c]pyridin-3-yl]-3-oxo-2,5,6,7-tetrahydro-3H-pyrrolo[1,2-c]imidazol-6-yl}-1-fluoromethanesulfonamide]  114%
8. O=C1N(c2noc3cccc(-c4c(F)cc(F)cc4F)c23)CC[C@H]2N1C[C@@H](NS(=O)(=O)CF)C2(F)F [Example 203, N-{(4aR,6R)-5,5-difluoro-1-oxo-2-[4-(2,4,6-trifluorophenyl)-1,2-benzoxazol-3-yl]octahydropyrrolo[1,2-c]pyrimidin-6-yl}-1-fluoromethanesulfonamide]  114%
9. CS(=O)(=O)N[C@@H]1Cn2c(cn(-c3noc4nc(C5CC5)cc(-c5c(F)cccc5F)c34)c2=O)C1(F)F [Example 197, N-{(6R)-2-[6-cyclopropyl-4-(2,6-difluorophenyl)[1,2]oxazolo[5,4-b]pyridin-3-yl]-7,7-difluoro-3-oxo-2,5,6,7-tetrahydro-3H-pyrrolo[1,2-c]imidazol-6-yl}methanesulfonamide]  115%
10. CS(=O)(=O)N[C@@H]1CN2C(=O)N(c3noc4cc(C(F)F)cc(-c5c(F)cc(F)cc5F)c34)CC[C@@H]2C1(F)F [Example 200, N-{(4aR,6R)-2-[6-(difluoromethyl)-4-(2,4,6-trifluorophenyl)-1,2-benzoxazol-3-yl]-5,5-difluoro-1-oxooctahydropyrrolo[1,2-c]pyrimidin-6-yl}methanesulfonamide]  122%
